# Test results reported in PubChem BioAssay AID1259407 (Chemical Carcinogenesis Research Information System (CCRIS), 2018).
# Active and inactive are the calls of the source. No rule for the calls is given here.
# System: CCRIS mutagenicity, Ames/micronucleus/aberration tests
# Assay: CCRIS mutagenicity studies
# [1] = Test System: AMES SALMONELLA TYPHIMURIUM, Strain/Indicator: TA100, Metabolic Activation: NONE, Method: STANDARD PLATE
smiles,measurement,setting,value
O=C(CCCN1CCC(O)(c2ccc(Cl)cc2)CC1)c1ccc(F)cc1,mutagenic call,"End Point: IN VITRO CHROMOSOMAL ABERRATIONS, Test System: HUMAN LYMPHOCYTES, Metabolic Activation: NONE",inactive; negative
same,mutagenic call,"End Point: IN VIVO CHROMOSOMAL ABERRATIONS, Test System: LYMPHOCYTES, Species: HUMAN, Strain/Sex: MALE, Route: ORAL",inactive; negative
same,mutagenic call,"Test System: AMES SALMONELLA TYPHIMURIUM, Strain/Indicator: TA98, Metabolic Activation: MOUSE, LIVER, S-9, AROCLOR 1254, Method: STANDARD PLATE",inactive; negative
same,mutagenic call,"Test System: AMES SALMONELLA TYPHIMURIUM, Strain/Indicator: TA98, Metabolic Activation: MOUSE, LIVER, S-9, Method: STANDARD PLATE",inactive; negative
same,mutagenic call,"Test System: AMES SALMONELLA TYPHIMURIUM, Strain/Indicator: TA98, Metabolic Activation: NONE, Method: PREINCUBATION",inactive; negative
same,mutagenic call,"Test System: AMES SALMONELLA TYPHIMURIUM, Strain/Indicator: TA98, Metabolic Activation: NONE, Method: STANDARD PLATE",inactive; negative
same,mutagenic call,"Test System: AMES SALMONELLA TYPHIMURIUM, Strain/Indicator: TA98, Metabolic Activation: RAT, LIVER, S-9, AROCLOR 1254, Method: PREINCUBATION",inactive; negative
same,mutagenic call,"Test System: AMES SALMONELLA TYPHIMURIUM, Strain/Indicator: TA98, Metabolic Activation: RAT, LIVER, S-9, AROCLOR 1254, Method: STANDARD PLATE",inactive; negative
same,mutagenic call,"Test System: AMES SALMONELLA TYPHIMURIUM, Strain/Indicator: TA100, Metabolic Activation: MOUSE, LIVER, S-9, AROCLOR 1254, Method: STANDARD PLATE",inactive; negative
same,mutagenic call,"Test System: AMES SALMONELLA TYPHIMURIUM, Strain/Indicator: TA100, Metabolic Activation: MOUSE, LIVER, S-9, Method: STANDARD PLATE",inactive; negative
same,mutagenic call,"Test System: AMES SALMONELLA TYPHIMURIUM, Strain/Indicator: TA100, Metabolic Activation: NONE, Method: PREINCUBATION",inactive; negative
same,mutagenic call,[1],inactive; negative
same,mutagenic call,"Test System: AMES SALMONELLA TYPHIMURIUM, Strain/Indicator: TA100, Metabolic Activation: RAT, LIVER, S-9, AROCLOR 1254, Method: PREINCUBATION",inactive; negative
same,mutagenic call,"Test System: AMES SALMONELLA TYPHIMURIUM, Strain/Indicator: TA100, Metabolic Activation: RAT, LIVER, S-9, AROCLOR 1254, Method: STANDARD PLATE",inactive; negative
same,mutagenic call,"Test System: AMES SALMONELLA TYPHIMURIUM, Strain/Indicator: TA1530, Metabolic Activation: MOUSE, LIVER, S-9, AROCLOR 1254, Method: STANDARD PLATE",inactive; negative
same,mutagenic call,"Test System: AMES SALMONELLA TYPHIMURIUM, Strain/Indicator: TA1530, Metabolic Activation: MOUSE, LIVER, S-9, Method: STANDARD PLATE",inactive; negative
same,mutagenic call,"Test System: AMES SALMONELLA TYPHIMURIUM, Strain/Indicator: TA1530, Metabolic Activation: NONE, Method: STANDARD PLATE",inactive; negative
same,mutagenic call,"Test System: AMES SALMONELLA TYPHIMURIUM, Strain/Indicator: TA1530, Metabolic Activation: RAT, LIVER, S-9, AROCLOR 1254, Method: STANDARD PLATE",inactive; negative
same,mutagenic call,"Test System: AMES SALMONELLA TYPHIMURIUM, Strain/Indicator: TA1535, Metabolic Activation: MOUSE, LIVER, S-9, AROCLOR 1254, Method: STANDARD PLATE",inactive; negative
same,mutagenic call,"Test System: AMES SALMONELLA TYPHIMURIUM, Strain/Indicator: TA1535, Metabolic Activation: MOUSE, LIVER, S-9, Method: STANDARD PLATE",inactive; negative
same,mutagenic call,"Test System: AMES SALMONELLA TYPHIMURIUM, Strain/Indicator: TA1535, Metabolic Activation: NONE, Method: STANDARD PLATE",inactive; negative
same,mutagenic call,"Test System: AMES SALMONELLA TYPHIMURIUM, Strain/Indicator: TA1535, Metabolic Activation: RAT, LIVER, S-9, AROCLOR 1254, Method: STANDARD PLATE",inactive; negative
same,mutagenic call,"Test System: AMES SALMONELLA TYPHIMURIUM, Strain/Indicator: TA1537, Metabolic Activation: NONE, Method: STANDARD PLATE",inactive; negative
same,mutagenic call,"Test System: AMES SALMONELLA TYPHIMURIUM, Strain/Indicator: TA1537, Metabolic Activation: RAT, LIVER, S-9, AROCLOR 1254, Method: STANDARD PLATE",inactive; negative
same,mutagenic call,"Test System: AMES SALMONELLA TYPHIMURIUM, Strain/Indicator: TA1538, Metabolic Activation: MOUSE, LIVER, S-9, AROCLOR 1254, Method: STANDARD PLATE",inactive; negative
same,mutagenic call,"Test System: AMES SALMONELLA TYPHIMURIUM, Strain/Indicator: TA1538, Metabolic Activation: MOUSE, LIVER, S-9, Method: STANDARD PLATE",inactive; negative
same,mutagenic call,"Test System: AMES SALMONELLA TYPHIMURIUM, Strain/Indicator: TA1538, Metabolic Activation: NONE, Method: STANDARD PLATE",inactive; negative
same,mutagenic call,"Test System: AMES SALMONELLA TYPHIMURIUM, Strain/Indicator: TA1538, Metabolic Activation: RAT, LIVER, S-9, AROCLOR 1254, Method: STANDARD PLATE",inactive; negative
CC(=O)ON(OCc1ccc(C)cc1)C(=O)c1ccccc1,mutagenic call,[1],active; positive
same,mutagenic call,"Test System: AMES SALMONELLA TYPHIMURIUM, Strain/Indicator: TA100, Metabolic Activation: RAT, S-9, AROCLOR, Method: STANDARD PLATE",active; positive
